Patent publication US20100063041A1, “NOVEL PHENYLPROPIONIC ACID DERIVATIVES AS PEROXISOME PROLIFERATOR-ACTIVATED GAMMA RECEPTOR MODULATORS, METHOD OF THE SAME, AND PHARMACEUTICAL COMPOSITION COMPRISING THE SAME” (priority 2007, published 2010)
Where a chain is given by its changes, count along the chain named.

Key:
Mouse PPAR-γ = target: T1, Mouse PPAR-γ (Mus musculus, UniProt P37238); experiment: transactivation assay (GAL4 chimeric receptor, luciferase) in CV-1 cells; assay type: cell-based; conditions: for Emax: CV-1, Relative Response % to maximum effects of the positive control drug, read-out: Max % Mouse PPAR-γ; for EC50: CV-1 cells, GAL4 chimeric receptor, 24 hours
T1 construct: expressed in transfected cells; host or cells: CV-1 (CCL-70, ATCC)
T1 sequence (P37238 238-503 limits assumed): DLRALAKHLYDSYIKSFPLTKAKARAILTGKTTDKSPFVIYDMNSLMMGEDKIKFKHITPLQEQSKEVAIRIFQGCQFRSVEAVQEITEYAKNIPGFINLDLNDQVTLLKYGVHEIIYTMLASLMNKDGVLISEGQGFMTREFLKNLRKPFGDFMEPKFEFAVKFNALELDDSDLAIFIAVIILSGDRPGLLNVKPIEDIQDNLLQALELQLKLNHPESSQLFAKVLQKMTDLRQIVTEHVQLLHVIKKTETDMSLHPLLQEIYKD
Description: (§1) Following induction of transient intracellular expression of PPAR-α and -γ, an ability of the inventive compounds to induce transactivation of PPARs via activation of each PPAR was evaluated as an efficacy of the compound (transactivation assay).
(§2) For this assay, the African green monkey kidney cell line CV-1 (CCL-70, ATCC) was used as a test cell line, and PPAR-α and -γ were murine- and human-derived PPARs. Samples used were compounds prepared in Examples 19, 21, 23, 25, 26, 27, 31, 33, 34, 36, 38, 40, 42, 43 and 50. As a positive control drug, 3-4-[2-(2-phenyl-4-methyl-1,3-oxazole)ethyloxy]phenyl-(2S)-[(1-methyl-3-oxo-3-phenyl)propenyl]aminopropionic acid was used that is a PPAR-α or -γ agonist which was once under development and whose clinical trials and studies were suspended at phase III. A chimeric receptor was adopted to circumvent the probable interference due to endogenous receptor activation (Jian-Shen Q. et al., Mol Cell Biol (1995) 15(3):1817-1825). The chimeric receptor was constructed as a fusion of a PPAR-α or -γ ligand-binding domain with a DNA-binding domain of GAL4 which is a yeast transactivator.
(§3) The CV-1 cells were transiently transfected with each of chimeric receptor-expressing DNA constructs and each of DNA constructs comprising 5 copies of the GAL4 DNA-binding domain and capable of inducing expression of firefly luciferase or Renilla luciferase using a Lipofectamine Plus reagent (Invitrogen, USA). After transfection for 3 hours, the culture media were replaced with DMEM containing the above samples and 10% fetal bovine serum. 24 hours later, the firefly luciferase activity and Renilla luciferase activity were continuously assayed while adding an equal amount of a dual luciferase assay reagent (Promega, USA) to the cell-containing media. The transfection efficiency was normalized against Renilla luciferase activity (Motomura W. et al., Int J Cancer (2004) 108(1):41-6). The PPAR-α and -γ activity was determined by calculating Relative Response % to maximum effects of the positive control drug, and conducting multiple dose evaluation of the inventive compounds to calculate EC50, which is the concentration of a drug which produces 50% activation relative to maximum effects of the inventive compounds, by nonlinear regression analysis.

Human PPAR-γ = target: T2, Human PPAR-γ (Homo sapiens, UniProt P37231); experiment: as above; assay type: cell-based; conditions: for Emax: CV-1, Relative Response % to maximum effects of the positive control drug, read-out: Max % Human PPAR-γ; for EC50: CV-1 cells, GAL4 chimeric receptor, 24 hours
T2 construct: expressed in transfected cells; host or cells: CV-1 (CCL-70, ATCC)
T2 sequence (P37231 238-503 limits assumed): T1 sequence (P37238 238-503 limits assumed) with N93S, I98V, N146S, V226L, H245Q
Description: as §1, §2, §3

Human PPAR-α = target: T3, Human PPAR-α (Homo sapiens, UniProt Q07869); experiment: as above; assay type: cell-based; conditions: for Emax: CV-1, Relative Response % to maximum effects of the positive control drug, read-out: Max % Human PPAR-α; for EC50: CV-1 cells, GAL4 chimeric receptor, 24 hours
T3 construct: expressed in transfected cells; host or cells: CV-1 (CCL-70, ATCC)
T3 sequence (Q07869 239-466 limits assumed): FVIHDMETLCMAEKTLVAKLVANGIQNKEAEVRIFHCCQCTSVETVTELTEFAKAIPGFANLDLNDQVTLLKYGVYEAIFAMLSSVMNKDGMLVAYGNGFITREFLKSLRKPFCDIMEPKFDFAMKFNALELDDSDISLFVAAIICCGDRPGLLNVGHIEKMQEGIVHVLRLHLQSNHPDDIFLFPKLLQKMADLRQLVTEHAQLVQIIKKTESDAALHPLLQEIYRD
Description: as §1, §2, §3

Mouse PPAR-α = target: T4, Mouse PPAR-α (Mus musculus, UniProt P23204); experiment: as above; assay type: cell-based; conditions: for Emax: CV-1, Relative Response % to maximum effects of the positive control drug, read-out: Max % Mouse PPAR-α; for EC50: CV-1 cells, GAL4 chimeric receptor, 24 hours
T4 construct: expressed in transfected cells; host or cells: CV-1 (CCL-70, ATCC)
T4 sequence (P23204 239-466 limits assumed): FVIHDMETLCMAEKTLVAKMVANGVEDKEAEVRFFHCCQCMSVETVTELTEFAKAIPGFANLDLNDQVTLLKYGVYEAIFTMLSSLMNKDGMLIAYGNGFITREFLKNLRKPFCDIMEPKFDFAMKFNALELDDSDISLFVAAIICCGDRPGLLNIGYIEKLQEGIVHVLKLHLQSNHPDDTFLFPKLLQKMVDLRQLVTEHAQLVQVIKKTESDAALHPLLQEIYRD
Description: as §1, §2, §3

[1] = system: diabetic male mice (db/db mice); experiment: blood glucose-lowering effects in mice with hyperglycemic diabetes; assay type: in vivo; conditions: for % Inhibition vs. Control / Blood glucose D5: oral once a day for 5 days; for Blood glucose D0: oral
Description: Effects of PPAR compounds on a blood glucose level were evaluated in 7-week-old diabetic male mice (db/db mice). Blood was collected from caudal veins of the diabetic animals to which the drug was administered once a day for 5 consecutive days, and the blood glucose level was then measured with a blood glucose test meter (ACCU CHEK Active®).

[2] = 12-week clinical, P>0.05, cited from earlier work

| SMILES | Emax (Mouse PPAR-γ) [%] | EC50 (Mouse PPAR-γ) [µM] | Emax (Human PPAR-γ) [%] | EC50 (Human PPAR-γ) [µM] | Emax (Human PPAR-α) [%] | Emax (Mouse PPAR-α) [%] | % Inhibition vs. Control ([1]; 0.1 mg/kg) [%] | Blood glucose D5 ([1]; 0.1 mg/kg) [mg/dL] | % Inhibition vs. Control ([1]; 0.3 mg/kg) [%] | Blood glucose D5 ([1]; 0.3 mg/kg) [mg/dL] | % Inhibition vs. Control ([1]; 1 mg/kg) [%] | Blood glucose D5 ([1]; 1 mg/kg) [mg/dL] | % Inhibition vs. Control ([1]; 3 mg/kg) [%] | Blood glucose D5 ([1]; 3 mg/kg) [mg/dL] | Blood glucose D0 ([1]; 0.1 mg/kg) [mg/dL] | Blood glucose D0 ([1]; 0.3 mg/kg) [mg/dL] | Blood glucose D0 ([1]; 1 mg/kg) [mg/dL] | Blood glucose D0 ([1]; 3 mg/kg) [mg/dL] | EC50 (Human PPAR-α) [µM] | EC50 (Mouse PPAR-α) [µM] | also measured |
| --- | --- | --- | --- | --- | --- | --- | --- | --- | --- | --- | --- | --- | --- | --- | --- | --- | --- | --- | --- | --- | --- |
| CCO[C@@H](Cc1ccc(OCc2sc(-c3ccc(-c4csc(C)n4)cc3)cc2C)cc1)C(=O)O [Example 21, (S)-2-ethoxy-3-(4-((3-methyl-5-(4-(2-methylthiazol-4-yl)phenyl)thiophen-2-yl)methoxy)phenyl)propionic acid] | 18 | 0.883 | 15 | 0.472 | 0 | 4 | 16 | 416 ± 45 | 28 | 354 ± 67 | 29 | 354 ± 58 | 36 | 319 ± 63 | 485 ± 44 | 483 ± 38 | 482 ± 45 | 483 ± 45 |  |  |  |
| CCO[C@@H](Cc1ccc(OCc2sc(-c3ccc(-c4nnn(COC)n4)cc3)cc2C)cc1)C(=O)O [Example 32, (S)-2-ethoxy-3-(4-((5-(4-(2-(methoxymethyl)-2H-tetrazol-5-yl)phenyl)-3-methylthiophen-2-yl)methoxy)phenyl)propionic acid] | 31 | 0.322 | 32 | 0.111 | 18 | 9 |  |  | 21 | 416 ± 53 |  |  | 61 | 205 ± 42 |  | 500 ± 32 |  | 498 ± 30 | 1.01 |  |  |
| CCO[C@@H](Cc1ccc(OCc2sc(-c3ccc(-c4cc(COC)on4)cc3)cc2C)cc1)C(=O)O [Example 36, (S)-2-ethoxy-3-(4-((5-(4-(5-(methoxymethyl)isoxazol-3-yl)phenyl)-3-methylthiophen-2-yl)methoxy)phenyl)propionic acid] | 48 | 0.354 | 37 | 0.041 | 25 | 21 |  |  |  |  | 33 | 381 ± 73 |  |  |  |  | 577 ± 15 |  | 2.3 | 4.3 | % Inhibition vs. Control ([1]; 10 mg/kg): 62%; Blood glucose D5 ([1]; 10 mg/kg): 278 ± 56 mg/dL; Blood glucose D0 ([1]; 10 mg/kg): 577 ± 16 mg/dL |
| CCO[C@@H](Cc1ccc(OCc2sc(-c3ccc(-c4cc(C)no4)cc3)cc2C)cc1)C(=O)O [Example 41, (S)-2-ethoxy-3-(4-((3-methyl-5-(4-(3-methylisoxazol-5-yl)phenyl)thiophen-2-yl)methoxy)phenyl)propionic acid] | 34 | 0.142 | 30 | 0.062 | 23 | 19 | 4 | 455 ± 67 | 20 | 378 ± 44 | 36 | 304 ± 13 | 46 | 257 ± 40 | 422 ± 34 | 422 ± 36 | 422 ± 30 | 423 ± 35 | 3.15 | 6.16 |  |
| CCO[C@@H](Cc1ccc(OCc2sc(-c3ccc(-c4cc(C(C)(C)C)on4)cc3)cc2C)cc1)C(=O)O [Example 48, (S)-3-(4-((5-(4-(5-tert-butylisoxazol-3-yl)phenyl)-3-methylthiophen-2-yl)methoxy)phenyl)-2-ethoxypropionic acid] | 24 | 0.031 | 27 | 0.007 | 22 | 25 |  |  |  |  | 24 | 375 ± 25 | 30 | 347 ± 70 |  |  | 452 ± 22 | 453 ± 20 | 2.83 | 12.1 | % Inhibition vs. Control ([1]; 10 mg/kg): 43%; Blood glucose D5 ([1]; 10 mg/kg): 280 ± 40 mg/dL; Blood glucose D0 ([1]; 10 mg/kg): 453 ± 43 mg/dL |
| CC(=O)NCCOC(=O)[C@H](Oc1cccc(C(F)(F)F)c1)c1ccc(Cl)cc1 [metaglidasen] |  |  |  |  |  |  |  |  |  |  |  |  |  |  |  |  |  |  |  |  | edema incidence rate ([2]; 20% in control group): 7.2%; body weight ([2]; +1.3 kg in control group): +0.6 kg |
